Laboratory results: patent US12428406B2 (PMV Pharmaceuticals, Inc., priority 2019, dated 2025)

biological target: T1, p53 Y220C (Homo sapiens, UniProt P04637, Y220C); test: In vitro DNA binding activity assay (HTRF / TR-FRET): stabilization of p53 Y220C and increase of its DNA binding activity; type: biochemical; conditions: recombinant His-tagged p53 Y220C DNA binding domain (aa 94-312), biotin-labeled consensus DNA, incubated at 27° C. or 29° C. for 60 min
T1 construct: The recombinant protein was a truncation mutant containing only amino acids 94-312 of p53; made in house; host or cells: E. coli
T1 sequence (P04637 94-312, change not shown): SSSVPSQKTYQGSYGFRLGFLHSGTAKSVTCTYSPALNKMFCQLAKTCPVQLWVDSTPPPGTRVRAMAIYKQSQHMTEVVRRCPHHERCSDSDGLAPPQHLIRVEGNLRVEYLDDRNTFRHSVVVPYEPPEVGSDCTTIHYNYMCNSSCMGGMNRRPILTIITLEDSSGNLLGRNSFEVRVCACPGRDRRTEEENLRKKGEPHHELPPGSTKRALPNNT
In short: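 Compounds from 4.5 mM DMSO stocks, 3-fold serial dilutions; room-temperature incubations of 15 and 20 min. SC150 = concentration raising DNA binding by 50% over no-compound control.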

SMILES	SC150 (concentration of the compound required to increase the DNA binding activity by 50%)
CNC(=O)c1ccc(NCC#Cc2cc3c(NC4CCC(N5CC6(COC6)C5)CC4)cccc3n2CC(F)(F)F)c(OCF)c1 [Compound 253A, 3-(fluoromethoxy)-N-methyl-4-{[3-(4-{[(1R,4R)-4-{2-oxa-6-azaspiro[3.3]heptan-6-yl}cyclohexyl]amino}-1-(2,2,2-trifluoroethyl)-1H-indol-2-yl)prop-2-yn-1-yl]amino} benzamide]	+ (+ = 0 μM ≤ SC150 < 0.05 μM)
COc1cc(C(=O)O)ccc1NCC#Cc1cc2c(N[C@H]3CCN(C(C)(C)C)C[C@H]3F)cccc2n1CC(F)(F)F [Compound 1071A, 4-{[3-(4-{[(3R,4S)-1-tert-butyl-3-fluoropiperidin-4-yl]amino}-1-(2,2,2-trifluoroethyl)-1H-indol-2-yl)prop-2-yn-1-yl]amino}-3-methoxybenzoic acid]	+ (+ = 0 μM ≤ SC150 < 0.05 μM)
COc1cc(C(=O)N2CCOCC2)ccc1NCC#Cc1cc2c(NC3CCN(C)CC3)cccc2n1CC(F)(F)F [Compound 491A]	+ (+ = 0 μM ≤ SC150 < 0.05 μM)
COCC(O)CN1CCCC(Nc2cccc3c2cc(C#CCNc2ccc(S(C)(=O)=O)cc2OC)n3CC(F)(F)F)C1 (centres unmarked) [Compound 695A, 1-{3-[(2-{3-[(4-methanesulfonyl-2-methoxyphenyl)amino]prop-1-yn-1-yl}-1-(2,2,2-trifluoroethyl)-1H-indol-4-yl)amino]piperidin-1-yl}-3-methoxypropan-2-ol]	+ (+ = 0 μM ≤ SC150 < 0.05 μM)
CC(C)C(=O)N(CC#Cc1cc2c(N[C@H]3CC[C@H](N4CC5(COC5)C4)CC3)cccc2n1CC(F)(F)F)c1ccc(S(C)(=O)=O)cc1O [Compound 218A, N-(2-hydroxy-4-methanesulfonylphenyl)-2-methyl-N-[3-(4-{[(1R,4R)-4-{2-oxa-6-azaspiro[3.3]heptan-6-yl}cyclohexyl]amino}-1-(2,2,2-trifluoroethyl)-1H-indol-2-yl)prop-2-yn-1-yl]propanamide]	++++ (++++ = 0.2 μM ≤ SC150 < 1 μM)
COC(=O)c1ccc(NCC#Cc2cc3c(N[C@H]4CCN(CC(=O)N(C)C)C[C@H]4F)cccc3n2CC(F)(F)F)c(OC)c1 [Compound 914A, methyl 4-{[3-(4-{[(3R,4S)-1-[(dimethylcarbamoyl)methyl]-3-fluoropiperidin-4-yl]amino}-1-(2,2,2-trifluoroethyl)-1H-indol-2-yl)prop-2-yn-1-yl]amino}-3-methoxybenzoate]	+ (+ = 0 μM ≤ SC150 < 0.05 μM)
CS(=O)(=O)c1ccc(NCC#Cc2cc3c(N[C@H]4CC[C@@H](N5CC6(COC6)C5)CC4)cccc3n2CC(F)(F)F)c(OCC#N)c1 [Compound 223A, 2-(5-methanesulfonyl-2-{[3-(4-{[(1S,4S)-4-{2-oxa-6-azaspiro[3.3]heptan-6-yl}cyclo-hexyl]amino}-1-(2,2,2-trifluoroethyl)-1H-indol-2-yl)prop-2-yn-1-yl]amino}phenoxy) acetonitrile]	+ (+ = 0 μM ≤ SC150 < 0.05 μM)
CNS(=O)(=O)c1ccc(NCC#Cc2cc3c(NC4CCOCC4)cccc3n2CC(F)(F)F)c(OC)c1 [Compound 1008A]	+ (+ = 0 μM ≤ SC150 < 0.05 μM)
CNS(=O)(=O)c1ccc(NCC#Cc2cc3c(N[C@H]4CC[C@@H](N(C)C)CC4)cccc3n2CC(F)(F)F)c(OC)c1 [Compound 72A, 3-methoxy-N-methyl-4-{[3-(4-{[(1S,4S)-4-(dimethylamino)cyclohexyl]amino}-1-(2,2,2-trifluoroethyl)-1H-indol-2-yl)prop-2-yn-1-yl]amino}benzene-1-sulfonamide]	+ (+ = 0 μM ≤ SC150 < 0.05 μM)
COc1cc(S(N)(=O)=O)ccc1NCC#Cc1cc2c(N[C@@H]3C[C@@H](C)O[C@@H](C)C3)cccc2n1CC(F)(F)F [Compound 1031A, 3-methoxy-4-{[3-(4-{[(2R,4S,6S)-2,6-dimethyloxan-4-yl]amino}-1-(2,2,2-trifluoroethyl)-1H-indol-2-yl)prop-2-yn-1-yl]amino}benzene-1-sulfonamide]	+ (+ = 0 μM ≤ SC150 < 0.05 μM)
COc1cncc(-c2ccc(NCC#Cc3cc4c(NC5CCN(C)CC5)cccc4n3CC(F)(F)F)c(OC)c2)c1 [Compound 494A, 2-(3-{[2-methoxy-4-(5-methoxypyridin-3-yl)phenyl]amino}prop-1-yn-1-yl)-N-(1-methylpiperidin-4-yl)-1-(2,2,2-trifluoroethyl)-1H-indol-4-amine]	+ (+ = 0 μM ≤ SC150 < 0.05 μM)
CCN1CC[C@@H](Nc2cccc3c2cc(C#CCNc2ccc(C(=O)O)cc2OC)n3CC(F)(F)F)[C@@H](F)C1 [Compound 829A, 4-{[3-(4-{[(3S,4R)-1-ethyl-3-fluoropiperidin-4-yl]amino}-1-(2,2,2-trifluoroethyl)-1H-indol-2-yl)prop-2-yn-1-yl]amino}-3-methoxybenzoic acid]	+ (+ = 0 μM ≤ SC150 < 0.05 μM)
CCNC(=O)c1ccc(NCC#Cc2cc3c(N[C@H]4CC[C@@H](N(C)C)CC4)cccc3n2CC(F)(F)F)c(OC)c1 [Compound 102A, N-ethyl-3-methoxy-4-{[3-(4-{[(1S,4S)-4-(dimethylamino)cyclo-hexyl]amino}-1-(2,2,2-trifluoroethyl)-1H-indol-2-yl)prop-2-yn-1-yl]amino}benzamide]	+ (+ = 0 μM ≤ SC150 < 0.05 μM)
COc1cc(S(C)(=O)=O)ccc1NCC#Cc1cc2c(N(C)[C@H]3CCN(C)C[C@H]3F)cccc2n1CC(F)(F)F (racemic) [Compound 831A, rac-N-[(3R,4S)-3-fluoro-1-methylpiperidin-4-yl]-2-{3-[(4-methanesulfonyl-2-methoxyphenyl)amino]prop-1-yn-1-yl}-N-methyl-1-(2,2,2-trifluoroethyl)-1H-indol-4-amine]	+ (+ = 0 μM ≤ SC150 < 0.05 μM)
COc1cc(S(C)(=O)=O)ccc1NCC#Cc1cc2c(N[C@H]3CCC[C@@H](N)C3)cccc2n1CC(F)(F)F (racemic) [Compound 27A, rac-(1R,3S)-N^1-(2-{3-[(4-methanesulfonyl-2-methoxyphenyl)amino]prop-1-yn-1-yl}-1-(2,2,2-trifluoroethyl)-1H-indol-4-yl)cyclohexane-1,3-diamine]	+ (+ = 0 μM ≤ SC150 < 0.05 μM)
COC[C@H](O)CN1CC[C@@H](Nc2cccc3c2cc(C#CCNc2ccc(S(N)(=O)=O)cc2OC)n3CC(F)(F)F)[C@@H](F)C1 [Compound 869A, 4-{[3-(4-{[(3S,4R)-3-fluoro-1-[(2R)-2-hydroxy-3-methoxypropyl]piperidin-4-yl]amino}-1-(2,2,2-trifluoroethyl)-1H-indol-2-yl)prop-2-yn-1-yl]amino}-3-methoxybenzene-1-sulfonamide]	+ (+ = 0 μM ≤ SC150 < 0.05 μM)
COCCNc1cccc2c1cc(C#CCNc1ccc(S(N)(=O)=O)cc1OC)n2CC(F)(F)F [Compound 2A, 3-methoxy-4-[(3-{4-[(2-methoxyethyl)amino]-1-(2,2,2-trifluoroethyl)-1H-indol-2-yl}prop-2-yn-1-yl)amino]benzene-1-sulfonamide]	++ (++ = 0.05 μM ≤ SC150 < 0.1 μM)
COc1cc(S(C)(=O)=O)ccc1NCC#Cc1cc2c(N[C@H]3CCN(C(C)C)C[C@H]3F)cccc2n1CC(F)(F)F [Compound 803A]	+ (+ = 0 μM ≤ SC150 < 0.05 μM)
COc1cc(S(C)(=O)=O)ccc1NCC#Cc1cc2c(N[C@H]3CCN(C[C@@H](C)O)C[C@H]3F)cccc2n1CC(F)(F)F [Compound 894A, 1-[(3R,4S)-3-fluoro-4-[(2-{3-[(4-methanesulfonyl-2-methoxyphenyl)amino]prop-1-yn-1-yl}-1-(2,2,2-trifluoroethyl)-1H-indol-4-yl)amino]piperidin-1-yl]propan-2-ol]	+ (+ = 0 μM ≤ SC150 < 0.05 μM)
COC(=O)c1ccc(NCC#Cc2cc3c(N[C@H]4CCN(CC(N)=O)C[C@H]4F)cccc3n2CC(F)(F)F)c(OC)c1 [Compound 915A, methyl 4-{[3-(4-{[(3R,4S)-1-(carbamoylmethyl)-3-fluoropiperidin-4-yl]amino}-1-(2,2,2-trifluoroethyl)-1H-indol-2-yl)prop-2-yn-1-yl]amino}-3-methoxybenzoate]	+ (+ = 0 μM ≤ SC150 < 0.05 μM)
COc1cc(S(C)(=O)=O)ccc1NCC#Cc1cc2c(N[C@H]3CC[C@H](N4CCOCC4)CC3)cccc2n1CCF [Compound 176A, 1-(2-fluoroethyl)-2-{3-[(4-methane-sulfonyl-2-methoxy-phenyl)amino]prop-1-yn-1-yl}-N-[(1R,4R)-4-(morpholin-4-yl)cyclo-hexyl]-1H-indol-4-amine]	+ (+ = 0 μM ≤ SC150 < 0.05 μM)
COc1cc(C(C)(C)C#N)ncc1NCC#Cc1cc2c(NC3CCN(C)CC3)cccc2n1CC(F)(F)F [Compound 468A, 2-{4-methoxy-5-[(3-{4-[(1-methylpiperidin-4-yl)amino]-1-(2,2,2-trifluoroethyl)-1H-indol-2-yl}prop-2-yn-1-yl)amino]pyridin-2-yl}-2-methylpropanenitrile]	+ (+ = 0 μM ≤ SC150 < 0.05 μM)
COc1cc(S(C)(=O)=O)ccc1NCC#Cc1cc2c(N[C@H]3CC[C@H](N(C)C)CC3)cccc2n1CC1CO1 (stereo partly drawn) [Compound 77A, (1R,4R)—N^4-(2-{3-[(4-methanesulfonyl-2-methoxyphenyl)amino]prop-1-yn-1-yl}-1-[(oxiran-2-yl)methyl]-1H-indol-4-yl)-N^1,N^1-dimethylcyclohexane-1,4-diamine]	++++ (++++ = 0.2 μM ≤ SC150 < 1 μM)
